The results in this text go back to ChEMBL document CHEMBL4422660, “Synthesis of NSC 106084 and NSC 14778 and evaluation of their DNMT inhibitory activity” (Bioorg Med Chem Lett, 2019).

The source made the active and inactive calls. The calls are words filed in the database; no cut-off is given here.

This assay concerns DNA. Kind of assay: Induction of DNA intercalation using nucleosomal DNA (unknown origin) up to 1 mM by CYBR Green dye-based fluorescence assay. In kind it is nucleic-acid assay.

For the molecule `O=C(O)c1cc(Cc2ccc(O)c(C(=O)O)c2)ccc1O`, the result was inactive.
